ChEMBL document CHEMBL1149550, “5(Z)-benzylidene-1,2-dihydro-9-hydroxy-10-methoxy-2,2,4-trimethyl-5H-1-aza-6-oxa-chrysenes as non-steroidal glucocorticoid receptor modulators” (Bioorg Med Chem Lett, 2007)

What was measured:
Glucocorticoid receptor [1] = biological target: T1, Glucocorticoid receptor (Homo sapiens, UniProt P04150); format: functional
T1 sequence (P04150 whole entry): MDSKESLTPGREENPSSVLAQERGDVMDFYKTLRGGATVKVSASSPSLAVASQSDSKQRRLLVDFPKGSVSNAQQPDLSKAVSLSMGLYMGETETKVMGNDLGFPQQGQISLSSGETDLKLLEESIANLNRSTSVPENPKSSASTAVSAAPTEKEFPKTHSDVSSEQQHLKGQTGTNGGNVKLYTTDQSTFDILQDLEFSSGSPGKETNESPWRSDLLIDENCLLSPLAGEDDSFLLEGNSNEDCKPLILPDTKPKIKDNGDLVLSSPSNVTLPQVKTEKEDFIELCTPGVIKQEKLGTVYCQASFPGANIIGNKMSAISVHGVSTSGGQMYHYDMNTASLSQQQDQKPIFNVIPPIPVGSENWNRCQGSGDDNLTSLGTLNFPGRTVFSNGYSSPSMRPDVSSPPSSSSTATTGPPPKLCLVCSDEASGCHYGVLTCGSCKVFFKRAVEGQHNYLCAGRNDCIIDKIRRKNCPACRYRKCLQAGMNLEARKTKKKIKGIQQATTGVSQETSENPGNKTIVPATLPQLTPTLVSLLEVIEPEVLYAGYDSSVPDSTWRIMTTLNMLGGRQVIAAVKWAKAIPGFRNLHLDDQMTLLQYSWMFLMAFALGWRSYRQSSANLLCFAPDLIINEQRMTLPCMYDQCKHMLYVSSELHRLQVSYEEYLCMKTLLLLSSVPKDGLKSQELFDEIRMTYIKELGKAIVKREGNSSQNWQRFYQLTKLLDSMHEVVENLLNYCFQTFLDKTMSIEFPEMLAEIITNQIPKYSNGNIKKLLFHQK
Description: Agonist activity at GR by GRE activation assay

Glucocorticoid receptor [2] = biological target: T1, Glucocorticoid receptor; format: functional; remark: listed apart in the source
Description: Activity at GR assessed as repression of TNFalpha and IL 1-beta induced E-selectin response

Glucocorticoid receptor [3] = biological target: T1, Glucocorticoid receptor
Description: Displacement of radiolabeled Dexamethasone from glucocorticoid receptor

Glucocorticoid receptor [4] = biological target: T1, Glucocorticoid receptor; format: functional; remark: listed apart in the source
Description: Antagonist activity at GR assessed as inhibition of dexamethasone-induced GRE activation

Glucocorticoid receptor [5] = biological target: T1, Glucocorticoid receptor; remark: listed apart in the source
Description: Agonist activity at GR by GRE activation assay relative to Dexamethasone

Progesterone receptor = biological target: T2, Progesterone receptor (Homo sapiens, UniProt P06401); experiment: Binding affinity at PR
T2 sequence (P06401 whole entry): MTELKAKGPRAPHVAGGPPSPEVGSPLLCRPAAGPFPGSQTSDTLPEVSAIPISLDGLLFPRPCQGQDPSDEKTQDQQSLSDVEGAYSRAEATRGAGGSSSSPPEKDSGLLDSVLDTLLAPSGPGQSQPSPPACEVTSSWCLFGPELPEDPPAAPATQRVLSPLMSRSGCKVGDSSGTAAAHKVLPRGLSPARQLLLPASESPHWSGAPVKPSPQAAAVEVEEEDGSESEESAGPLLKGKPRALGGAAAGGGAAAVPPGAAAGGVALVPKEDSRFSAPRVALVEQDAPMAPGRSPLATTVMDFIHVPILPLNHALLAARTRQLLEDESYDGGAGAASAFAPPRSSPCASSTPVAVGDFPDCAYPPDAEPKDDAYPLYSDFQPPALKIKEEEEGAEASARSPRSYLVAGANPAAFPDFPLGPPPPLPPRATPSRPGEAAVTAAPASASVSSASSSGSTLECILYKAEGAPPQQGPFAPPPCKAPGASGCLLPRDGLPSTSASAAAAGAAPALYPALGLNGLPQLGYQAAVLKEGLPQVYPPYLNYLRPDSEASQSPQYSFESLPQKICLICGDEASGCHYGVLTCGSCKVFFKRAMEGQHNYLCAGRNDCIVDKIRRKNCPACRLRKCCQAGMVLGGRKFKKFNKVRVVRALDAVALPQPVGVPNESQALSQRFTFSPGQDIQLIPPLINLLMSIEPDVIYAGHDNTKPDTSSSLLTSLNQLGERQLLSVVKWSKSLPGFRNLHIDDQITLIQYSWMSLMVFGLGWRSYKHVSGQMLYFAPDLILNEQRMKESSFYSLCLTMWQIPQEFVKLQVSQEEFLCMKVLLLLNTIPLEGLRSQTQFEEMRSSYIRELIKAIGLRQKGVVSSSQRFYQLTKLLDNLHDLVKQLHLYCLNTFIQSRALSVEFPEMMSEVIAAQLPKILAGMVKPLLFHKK

Androgen receptor = biological target: T3, Androgen receptor (Homo sapiens, UniProt P10275); experiment: Binding affinity at AR
T3 sequence (P10275 whole entry): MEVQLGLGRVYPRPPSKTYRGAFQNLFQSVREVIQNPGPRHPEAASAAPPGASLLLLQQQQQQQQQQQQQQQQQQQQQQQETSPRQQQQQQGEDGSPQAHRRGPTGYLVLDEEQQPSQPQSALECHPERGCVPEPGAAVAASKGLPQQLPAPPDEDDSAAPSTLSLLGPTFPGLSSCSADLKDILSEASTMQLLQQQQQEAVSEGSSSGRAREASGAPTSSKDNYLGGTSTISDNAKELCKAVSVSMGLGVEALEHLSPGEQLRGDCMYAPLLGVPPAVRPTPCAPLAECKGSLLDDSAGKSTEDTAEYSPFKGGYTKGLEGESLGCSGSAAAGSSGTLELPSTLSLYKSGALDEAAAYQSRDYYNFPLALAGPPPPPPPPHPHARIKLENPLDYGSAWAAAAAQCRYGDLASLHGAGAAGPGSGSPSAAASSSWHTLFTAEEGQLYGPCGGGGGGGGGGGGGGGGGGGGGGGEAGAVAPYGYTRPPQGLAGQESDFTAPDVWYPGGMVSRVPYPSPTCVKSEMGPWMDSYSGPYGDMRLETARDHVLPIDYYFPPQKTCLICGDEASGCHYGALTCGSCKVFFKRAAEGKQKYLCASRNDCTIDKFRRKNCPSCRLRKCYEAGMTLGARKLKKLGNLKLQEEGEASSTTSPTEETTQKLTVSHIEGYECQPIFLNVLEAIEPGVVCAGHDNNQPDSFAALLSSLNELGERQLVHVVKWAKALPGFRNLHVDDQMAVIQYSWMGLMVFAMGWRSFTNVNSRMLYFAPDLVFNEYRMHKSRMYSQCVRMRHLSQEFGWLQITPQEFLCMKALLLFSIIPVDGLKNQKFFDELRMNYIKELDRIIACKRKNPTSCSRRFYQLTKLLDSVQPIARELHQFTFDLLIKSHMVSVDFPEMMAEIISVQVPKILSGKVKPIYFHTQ

SMILES	EC50 (Glucocorticoid receptor [1])	IC50 (Glucocorticoid receptor [2])	Ki (Glucocorticoid receptor [3])	IC50 (Glucocorticoid receptor [4])	EC50 (Glucocorticoid receptor [5])	EC50 (Glucocorticoid receptor [4])	Ki (Progesterone receptor)	Ki (Androgen receptor)
COc1c(O)ccc2c1-c1ccc3c(c1/C(=C/c1ccccc1-c1ccccc1)O2)C(C)=CC(C)(C)N3	4.5 nM	4.4 nM	6.7 nM	3.6 nM				
COc1c(O)ccc2c1-c1ccc3c(c1/C(=C/c1cccc(Oc4ccccc4)c1)O2)C(C)=CC(C)(C)N3	> 1000 nM	74 nM	4.6 nM	1.9 nM	> 1000 nM			
COc1c(O)ccc2c1-c1ccc3c(c1/C(=C/c1cccc(C(F)(F)F)c1C)O2)C(C)=CC(C)(C)N3		15 nM	2.6 nM	2.6 nM				
COc1c(O)ccc2c1-c1ccc3c(c1/C(=C/c1cccc(C)n1)O2)C(C)=CC(C)(C)N3	0.7 nM	4.9 nM	1.6 nM	1.1 nM				
COc1c(O)ccc2c1-c1ccc3c(c1/C(=C/c1ccc(Cl)cc1)O2)C(C)=CC(C)(C)N3	43 nM	12 nM	1.7 nM	> 1000 nM				
COc1c(O)ccc2c1-c1ccc3c(c1/C(=C/c1cccc(C(F)(F)F)c1)O2)C(C)=CC(C)(C)N3	> 1000 nM	4.1 nM	2.7 nM	2.5 nM	> 1000 nM			
COc1c(O)ccc2c1-c1ccc3c(c1/C(=C/c1ccccc1F)O2)C(C)=CC(C)(C)N3	0.6 nM	1.4 nM	0.8 nM	1.3 nM				
COc1c(O)ccc2c1-c1ccc3c(c1/C(=C/c1ccc(C(C)C)cc1)O2)C(C)=CC(C)(C)N3	455 nM		2.9 nM			> 1000 nM		
COc1c(O)ccc2c1-c1ccc3c(c1/C(=C/c1ccccc1C)O2)C(C)=CC(C)(C)N3	3.4 nM	1 nM	1.7 nM	0.4 nM				
COc1c(O)ccc2c1-c1ccc3c(c1/C(=C/c1ccc(OC(F)(F)F)cc1)O2)C(C)=CC(C)(C)N3	> 1000 nM	91 nM	4.3 nM			> 1000 nM		
COc1c(O)ccc2c1-c1ccc3c(c1/C(=C/c1cccc(OC(F)(F)F)c1)O2)C(C)=CC(C)(C)N3	> 1000 nM	4.7 nM	4.1 nM	1.9 nM	> 1000 nM			
COc1c(O)ccc2c1-c1ccc3c(c1/C(=C/c1ccccc1Cl)O2)C(C)=CC(C)(C)N3	18 nM	18 nM	15 nM	24 nM				
COc1c(O)ccc2c1-c1ccc3c(c1/C(=C/c1cccc(C)c1)O2)C(C)=CC(C)(C)N3							400 nM	570 nM
COc1c(O)ccc2c1-c1ccc3c(c1/C(=C/c1cccc(-c4cccnc4)c1)O2)C(C)=CC(C)(C)N3	> 1000 nM	3.6 nM	1.5 nM	0.7 nM	> 1000 nM			
COc1ccc(/C=C2\Oc3ccc(O)c(OC)c3-c3ccc4c(c32)C(C)=CC(C)(C)N4)cc1	133 nM	10 nM	2.7 nM			> 1000 nM		
COc1c(O)ccc2c1-c1ccc3c(c1/C(=C/c1ccc(F)cc1S(=O)(=O)N1CCCCC1)O2)C(C)=CC(C)(C)N3	108 nM	22 nM	94 nM	6.6 nM				
COc1c(O)ccc2c1-c1ccc3c(c1/C(=C/c1ccc(-c4ccccc4)cc1)O2)C(C)=CC(C)(C)N3	33 nM	77 nM	4.4 nM			> 1000 nM		
CCc1ccc(/C=C2\Oc3ccc(O)c(OC)c3-c3ccc4c(c32)C(C)=CC(C)(C)N4)cc1	207 nM					> 1000 nM		
COc1c(O)ccc2c1-c1ccc3c(c1/C(=C/c1ccc(C)cc1)O2)C(C)=CC(C)(C)N3	38 nM	15 nM	1.9 nM	12 nM				
COc1c(O)ccc2c1-c1ccc3c(c1/C(=C/c1cccc(-c4ccccc4)c1)O2)C(C)=CC(C)(C)N3	> 1000 nM	12 nM	7.2 nM	2.3 nM	> 1000 nM			
COc1c(O)ccc2c1-c1ccc3c(c1/C(=C/c1ccc(O)cc1)O2)C(C)=CC(C)(C)N3	1.1 nM	1 nM	1.1 nM	0.4 nM				
COc1c(O)ccc2c1-c1ccc3c(c1/C(=C/c1cccc(-c4ccsc4)c1)O2)C(C)=CC(C)(C)N3	> 1000 nM	1.4 nM	3.1 nM	0.5 nM	> 1000 nM			
